Laboratory results from patent publication EP4772505A1, “COMPOUND FOR DEGRADING ANDROGEN RECEPTOR AND MEDICAL USE THEREOF” (Ubix Therapeutics, Inc., priority 2023, dated 2025).
Like-named read-outs stand apart in the source and are kept apart here.

Test: Plasma and tumor tissue concentrations following oral administration in VCaP xenograft model (HPLC/MS/MS)
Format: in vivo, mice
Details: mouse, 10 mg/kg orally once daily for 3 days
Description: The plasma and tumor tissue concentrations of the drug administered orally to a xenograft model using VCaP cells were analyzed as follows.
[Blood collection and tumor tissue extraction] The prepared drug was administered orally at a dose of 10 mg/kg once daily at the same time for 3 days. The mice were sacrificed 2, 6, and 24 hours after the last administration. Blood collection and tumor tissue extraction were performed immediately after sacrifice at each hour. Blood collected from the heart was placed in a K2EDTA tube for 30 minutes and then centrifuged at 15,000 rpm at 4°C for 10 minutes. The supernatant plasma was separated and stored at -20°C for analysis. The extracted tumor tissue was washed in PBS, cut into pieces of approximately 10 mg, and stored at -80°C for analysis.
[Sample Preparation] Cancer tissue was homogenized once at 5,500 rpm for 20 seconds after adding distilled water 9 times the tissue weight using a tissue homogenizer (Precellys Evolution, Bertin Technology). For cancer tissue, 20 µL of the homogenate was mixed with 20 µL of blank plasma sample, 20 µL of internal standard (carbamazepine, 30 ng/mL in acetonitrile), and 140 µL of acetonitrile. For plasma, 20 µL of the plasma sample was mixed with 20 µL of blank liver tissue sample, 20 µL of internal standard, and 140 µL of acetonitrile. Afterwards, the mixed sample was suspended for 10 minutes using a vortex mixer and centrifuged at 13,500 rpm for 10 minutes at room temperature. 140 µL of the supernatant was collected and transferred to an analysis container.
[Sample Analysis] Drug concentrations in cancer tissue and plasma samples were quantified using an HPLC/MS/MS system. 5 µL of the sample prepared in the analytical vessel was injected into the HPLC/MS/MS system for analysis. For drug quantification, a combination of 0.1% formic acid in distilled water and 0.1% formic acid in acetonitrile was used as the mobile phase. The analytical column used was a reverse-phase C18 column, and chromatograms were analyzed using isocratic elution. Ion detection was performed in ESI positive MRM mode, and peak integration was performed using Analyst software version 1.6.4 (Applied Biosystems/MDS SCIEX). Drug concentrations in cancer tissue were calculated by multiplying the concentrations obtained from the analysis of cancer tissue homogenate by a dilution factor of 10.

**Q.** For N#Cc1ccc(N2CCC(C(=O)Nc3ccc(OC4CCN(CC5CCN(c6ccc(N[C@H]7CCC(=O)NC7=O)cc6F)CC5)CC4)cn3)CC2)cc1C(F)(F)F [Example 2, (S)-1-(4-cyano-3-(trifluoromethyl)phenyl)-N-(5-((1-((1-(4-((2,6-dioxopiperidin-3-yl)amino)-2-fluorophenyl)piperidin-4-yl)methyl)piperidin-4-yl)oxy)pyridin-2-yl)piperidine-4-carboxamide], which concentration at 2 h (plasma, 2 hours after the last administration, read-out: Concentration in Plasma) is on record?
**A.** 816 ng/mL

**Q.** And the concentration at 6 h (plasma, 6 hours after the last administration, read-out: Concentration in Plasma)?
**A.** 610 ng/mL

**Q.** And the concentration at 24 h (plasma, 24 hours after the last administration, read-out: Concentration in Plasma)?
**A.** 51 ng/mL

**Q.** And the Kp at 2 h (tumor tissue / plasma, 2 hours after the last administration, read-out: Tissue to Plasma Ratio)?
**A.** 6.78

**Q.** And the Kp at 6 h (tumor tissue / plasma, 6 hours after the last administration, read-out: Tissue to Plasma Ratio)?
**A.** 10.1

**Q.** And the Kp at 24 h (tumor tissue / plasma, 24 hours after the last administration, read-out: Tissue to Plasma Ratio)?
**A.** 16.3

**Q.** And the concentration at 2 h (tumor tissue, 2 hours after the last administration, read-out: Concentration in Tumor Tissue)?
**A.** 5560 ng/g

**Q.** What about the concentration at 6 h (tumor tissue, 6 hours after the last administration, read-out: Concentration in Tumor Tissue) of the same molecule?
**A.** 6130 ng/g

**Q.** And the concentration at 24 h (tumor tissue, 24 hours after the last administration, read-out: Concentration in Tumor Tissue)?
**A.** 834 ng/g
